How the values were obtained:
[1] = test system: Cdc2 (Cdk1) tyrosine 15-phosphorylation; assay: Cdc2 (Cdk1) tyrosine 15-phosphorylation-inhibitory effect in WiDr cells + gemcitabine (ELISA); format: cell-based; conditions: Homo sapiens, gemcitabine 100 nM for 24 hours, then test compound with nocodazole for 8 hours, read-out: Cdc2-Y15 Phosphorylation-Inhibitory Effect (WiDr, + gemcitabine) (EC50)
Source text: Pharmaceutical Text 2 (Method of Determining Drug Potency in Cells (Cdc2 (Cdk1) Tyrosine 15-Phosphorylation-Inhibitory Effect))
Fetal bovine serum (FBS) was obtained from Morgate; media RPMI1640 and DMEM were from Invitrogen; camptothecin was from Sigma; gemcitabine was from Nippon Eli Lilly; nocodazole and protease inhibitor cocktail were from Sigma; rabbit anti-Cdc2 antibody and mouse anti-Cdc2 antibody were from Santa Cruz Biotechnology; rabbit anti-tyrosine 15-phosphorylated Cdc2 antibody and horseradish peroxidase-labeled anti-mouse IgG antibody were from Cell Signaling Technology; sure blue reserve TMB peroxidase substrate was from Kirkegaard and Perry Laboratories. […]
In the method of using WiDr cells, the cells were suspended in DMEM containing 10% FBS, and the cell suspension was applied to a 96-well Nunclondelta-processed plastic plate in an amount of 2000 cells/100 μL/well, in which the cells were incubated overnight in 5% CO2-95% air at 37° C. […] Cdc2 was determined through ELISA as follows: A rabbit anti-Cdc2 antibody solution, which had been diluted 200-fold with 50 mM carbonate-bicarbonate buffer (pH 9.6), was applied to a 96-well maxisorp plastic plate in an amount of 50 μL/well, and statically kept overnight at 4° C. so as to fix the antibody on the plate. […]

[2] = test system: Human colon cancer cells WiDr; assay: Tumor growth-inhibitory effect, WiDr tumor implanted subcutaneously in nude rats; format: in vivo, F344/N Jcl-mu nude rats; conditions: compound alone 0.75 mg/kg/hr, continuous intravenous injection for 8 hours
Procedure: Pharmaceutical Test 4 (Tumor Growth-Inhibitory Effect)
Human colon cancer cells WiDr (gotten from ATCC) were implanted into the subcutaneous area of the back of F344/N Jcl-mu nude rats. Eight days after the implantation, gemcitabine (50 mg/kg, Gemzar injection, Eli-Lilly) was intravenously administered to them; and after 24 hours, a test compound was dissolved in a solvent (5% glucose) and given to them through continuous intravenous injection for 8 hours. The tumor volume (0.5×(major diameter)×(minor diameter)^2) was determined on day 0, 3, 6, 10 and 13. Day 0 means the day on which gemcitabine was administered. The relative tumor volume is a relative value, as calculated on the basis of the tumor volume of 1 on day 0. The tumor growth percentage (% T/C) was obtained according to the following formula:
When the tumor volume change from day 0 in the group subjected to test compound administration is more than 0 (>0): % T/C=[(tumor volume change in the test compounds on day 3, 6, 10, 13)/(tumor volume change in the control on day 3, 6, 10, 13)]×100. When the tumor volume change from day 0 in the group subjected to test compound administration is less than 0 (<0): % T/C=[(tumor volume change in the test compounds on day 3, 6, 10, 13)/(tumor volume […])]×100.

C=CCn1c(=O)c2cnc(Nc3ccc(N4CCN(C)CC4)cc3)nc2n1-c1cccc(C(C)(C)O)n1 [Example 53, 2-allyl-1-[6-(1-hydroxy-1-methylethyl)pyridin-2-yl]-6-{[4-(4-methylpiperazin-1-yl)phenyl]amino}-1,2-dihydro-3H-pyrazolo[3,4-d]pyrimidin-3-one]
EC50 [1]: 119 nM | % T/C day 3 ([2]; day 3): 86% | % T/C day 6 ([2]; day 6): 74% | % T/C day 10 ([2]; day 10): 81% | % T/C day 13 ([2]; day 13): 89%

From patent US7834019B2, “Substituted pyrazolo[3,4-d]pyrimidinone derivatives” (Banyu Pharmaceutical Co., Ltd., priority 2006, dated 2010)
